Measured values as given in article PMC10993414, “Water Quality Monitoring with the Multiplexed Assay MitoOxTox for Mitochondrial Toxicity, Oxidative Stress Response, and Cytotoxicity in AREc32 Cells” (Environmental Science & Technology, 2024).
Read-outs that look alike come from different tables or passages of the source.

Legend:
AREc32 cells [1] = tested on: AREc32 cells
[2] = tested on: Nrf2-mediated oxidative stress response pathway (ARE) in AREc32 cells
[3] = tested on: Nrf2-mediated oxidative stress response pathway (ARE) in AREc32 cells; test: cells; conditions: Arec32, 24 h, read-out: Oxidative stress response ECIR1.5 (M)
AREc32 cells [4] = tested on: AREc32 cells; remark: listed apart in the source
[5] = experimental; ref PhysPropNCCT; cited from earlier work
[6] = tested on: mitochondrial membrane potential (MMP) in AREc32 cells
[7] = tested on: mitochondrial membrane potential (MMP) in AREc32 cells; test: Disruption of mitochondrial membrane potential (m-MPI red/green ratio), MitoOxTox; conditions: for MMP inhibition activity (in words): MitoOxTox, AREc32; for EC10: MMP, AREc32, 24 h
AREc32 cells [8] = test: Cytotoxicity with ImageXpress high-content imaging, MitoOxTox; conditions: AREc32, 24 h exposure; for Cytotoxicity ImageExpress IC10: 10% reduction in cell viability; for Cytotoxicity ImageExpress log(IC10 (M)): logarithm of IC10, Corning plates
AREc32 cells [9] = test: Cytotoxicity (cell confluency) with IncuCyte S3 live cell imaging, MitoOxTox; conditions: AREc32, 24 h exposure; for Cytotoxicity Incucyte IC10: 10% reduction in cell viability
[10] = tested on: mitochondrial membrane potential (MMP) in HepG2 cells; conditions: cited from earlier work; for MMP inhibition activity (in words): Tox21 MMP assay, HepG2
[11] = ref Cessna et al. 1978; cited from earlier work
[12] = tested on: oxidative stress response in AREc32 cells; set-up: method as in Escher et al. 42; conditions: original AREc32 reporter gene assay; ref Escher et al. 42; cited from earlier work
[13] = 10% reduction of MMP, AREc32, 24 h exposure
[14] = logarithm of EC10, AREc32, 24 h exposure
[15] = effect concentration leading to induction ratio 1.5, AREc32, 24 h exposure

Molecule | Cytotoxicity ImageExpress IC10 (AREc32 cells [1]; human) [µM] | Cytotoxicity ImageExpress log(IC10 (M)) (AREc32 cells [1]; human) [M] | EC (induction ratio 1.5) [3] [M] | Cytotoxicity Incucyte IC10 (AREc32 cells [4]; human) [µM] | log Kow [L/L] [5] [L/L] | SRcytotoxicity ([6]; human) | MMP inhibition EC10 [7, 13] [µM] | MMP inhibition log(EC10 (M)) [7, 14] | also measured
O=[N+]([O-])c1ccc(O)c([N+](=O)[O-])c1 [2,4-Dinitrophenol] | 426 | -3.37 | 0.000156 | 281 | 1.67 | 35.1 | 12.1 | -4.92 M | activation of the oxidative stress response (in words) ([2]; AREc32): activated
CO/C=C(/C(=O)OC)c1ccccc1Oc1cc(Oc2ccccc2C#N)ncn1 [Azoxystrobin] |  |  |  |  | 2.50 |  | 15.9 | -4.80 M | Oxidative stress response ECIR1.5 [2, 15]: > 105 µM; Cytotoxicity ImageExpress IC10 (AREc32 cells [8]): > 105 µM; Cytotoxicity ImageExpress log(IC10 (M)) (AREc32 cells [8]): no cytotoxicity; Cytotoxicity Incucyte IC10 (AREc32 cells [9]): > 105 µM; Cytotoxicity Incucyte log(IC10 (M)) (AREc32 cells [9]; logarithm of IC10, Corning plates): no cytotoxicity
O=C(Nc1ccccc1-c1ccc(Cl)cc1)c1cccnc1Cl [Boscalid] |  |  | > 8.32e-05 |  | 2.96 |  | > 83.2 | no Effect | Cytotoxicity ImageExpress log(IC10 (M)) (AREc32 cells [1]): no cytotoxicity; Cytotoxicity ImageExpress IC10 (AREc32 cells [1]; human, 24 h): > 83.2 µM; MMP inhibition activity (in words) [10]: inactive; Cytotoxicity Incucyte log(IC10 (M)) (AREc32 cells [4]): no cytotoxicity; Cytotoxicity Incucyte IC10 (AREc32 cells [4]; human, 24 h): > 83.2 µM; MMP inhibition EC10 (M) ([7]; 10% reduction of MMP, AREc32, 24 h exposure, listed as boscalid): > 8.32 × 10^–5 M; MMP inhibition activity (in words) [7]: inactive
N#Cc1cc(Br)c(O)c(Br)c1 [Bromoxynil] |  |  |  |  |  |  | 21.9 | -4.66 M | pKa (Acid) [11]: 4.21
CC1=C(C(=O)Nc2ccccc2)SCCO1 [Carboxin] |  |  | 0.00014 |  | 2.14 |  | 152 | -3.82 M | Cytotoxicity ImageExpress log(IC10 (M)) (AREc32 cells [1]): no cytotoxicity; Cytotoxicity ImageExpress IC10 (AREc32 cells [1]; human, 24 h): > 429 µM; activation of the oxidative stress response (in words) ([2]; AREc32): activated; Cytotoxicity Incucyte IC10 (AREc32 cells [4]; human, 24 h): 1080 µM; EC10 [7]: 152 µM
CNC(=O)/C(=N/OC)c1ccccc1COc1cc(C)ccc1C [Dimoxystrobin] |  |  |  |  |  |  | 0.439 | -6.36 M | Cytotoxicity ImageExpress IC10 (AREc32 cells [1]): 142 µM; Cytotoxicity ImageExpress log(IC10 (M)) (AREc32 cells [1]): -3.85 M; Oxidative stress response ECIR1.5 [2, 15]: > 206 µM; Cytotoxicity Incucyte IC10 (AREc32 cells [4]): 129 µM; SRcytotoxicity [6]: 324
CC(C)(C)c1ccc(CCOc2ncnc3ccccc23)cc1 [Fenazaquin] |  |  | > 0.000314 |  | 5.51 | 9356 | 0.0118 | -7.93 M | Cytotoxicity ImageExpress IC10 (AREc32 cells [8]): 110 µM; Cytotoxicity ImageExpress log(IC10 (M)) (AREc32 cells [8]): -3.96 M; MMP inhibition activity (in words) [10]: only active in the MitoOxTox assay; Cytotoxicity Incucyte IC10 (AREc32 cells [9]): 100 µM; MMP inhibition activity (in words) [7]: active
CC(C)Oc1cccc(NC(=O)c2ccccc2C(F)(F)F)c1 [Flutolanil] | 138 | -3.86 | > 0.000226 | 106 | 3.7 | 5.5 | 25.2 | -4.60 M | 
Oc1c(Cl)cc(Cl)c(Cl)c1Cc1c(O)c(Cl)cc(Cl)c1Cl [Hexachlorophene] | 10.7 | -4.97 | > 9.31e-05 | 5.46 |  | 38.6 |  |  | MMP inhibition EC10 [7]: 0.276 µM; MMP inhibition log(EC10 (M)) [7]: -6.56 M
Oc1c(Cl)c(Cl)c(Cl)c(Cl)c1Cl [Pentachlorophenol] | 74.4 | -4.13 | 6.91e-05 | 67.9 |  | 6.6 |  |  | activation of the oxidative stress response (in words) [2]: activated; SRcytotoxicity (oxidative stress response) ([2]; human): 6.6; MMP inhibition EC10 [7]: 11.2 µM; MMP inhibition log(EC10 (M)) [7]: -4.95 M
CO/C=C(/C(=O)OC)c1ccccc1COc1cccc(C(F)(F)F)n1 [Picoxystrobin] |  |  |  |  |  |  | 1.35 | -5.87 M | Oxidative stress response ECIR1.5 [2, 15]: > 139 µM; Cytotoxicity ImageExpress IC10 (AREc32 cells [8]): 80.1 µM; Cytotoxicity ImageExpress log(IC10 (M)) (AREc32 cells [8]): -4.10 M; Cytotoxicity Incucyte IC10 (AREc32 cells [9]): 77.7 µM; SRcytotoxicity [6]: 59.5
C=C(C)[C@H]1Cc2c(ccc3c2O[C@@H]2COc4cc(OC)c(OC)cc4[C@@H]2C3=O)O1 [Rotenone] | 0.242 | -6.62 | > 6.57e-07 | 0.212 | 4.1 | 46 | 0.00531 | -8.27 M | 
CCC/C=C/C=C/C(=O)O[C@H]1/C(=C/C(=O)OC)C[C@H]2C[C@H]([C@@H](C)O)OC(=O)C[C@H](O)C[C@@H]3C[C@H](OC(C)=O)C(C)(C)[C@](O)(C[C@@H]4C/C(=C/C(=O)OC)C[C@H](/C=C/C(C)(C)[C@]1(O)O2)O4)O3 [bryostatin 1] |  |  |  |  |  |  |  |  | EC50 ([10]; HepG2 cells, 1 h of exposure, read-out: EC50 (decrease of MMP)): 0.0096 µM
CC(C)(C)c1cc(O)ccc1O [tBHQ, tert-butylhydroquinone] |  |  |  |  |  |  |  |  | ECIR1.5 ([2]; current study, multiplexed MitoOxTox, AREc32): 3.14 µM; ECIR1.5 [12]: 1.32 µM
Oligomycin A |  |  |  |  |  |  | 0.000235 | -9.63 M | Oxidative stress response ECIR1.5 [2, 15]: > 12.7 µM; EC10 [7]: 0.00024 µM
Tributyltin chloride |  |  |  |  |  |  |  |  | Oxidative stress response ECIR1.5 [2]: > 1.23 µM; MMP inhibition EC10 [7]: 0.0145 µM; MMP inhibition log(EC10 (M)) [7]: -7.84 M
